Data published in ChEMBL document CHEMBL1201862, “PubChem BioAssay data set” (2004).
Active and inactive are the calls of the source.

Experiments:
[1] = target: Protein disulfide-isomerase (Homo sapiens, UniProt P07237); assay: PDI inhibitors, insulin aggregation turbidity, dose response, biochemical, absorbance, cherry-picked samples (AID 602350); assay type: functional
Melanocortin receptor 4 = Melanocortin receptor 4 (Homo sapiens, UniProt P32245); assay: MC4R antagonist potency on cAMP, dose response, cell-based, TR-FRET, biased antagonists (AID 602298); assay type: functional;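 note: antagonist potency against agonist-stimulated cAMP production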
[2] = nonselective inhibitors of cellular cAMP signaling, dose response, counter-screen for MC4R biased antagonist project, cell-based, TR-FRET cAMP detection (AID 602305); assay type: functional;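 note: U2OS cells stimulated with forskolin near its EC80 as the cAMP inducer; potency is for inhibition of forskolin-stimulated cAMP signaling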
[3] = inhibitors of firefly luciferase expression or activity, dose response, H4 neuroglioma cells, luminescence (AID 1990); assay type: functional, cell-based
[4] = Luminescence Cell-Based Dose Response HTS to Identify Inhibitors of 5'UTR Stem-Loop Driven Prion Protein mRNA Translation in H4 Neuroglioblastoma Cells. [Related pubchem assays: 1827 (Project Summary), 1813 (Primary HTS)]; assay type: functional
[5] = inhibitors of SNCA 5'UTR-driven reporter translation, confirmation, H4 neuroglioma cells, luminescence (AID 1988); assay type: functional, cell-based
[6] = target: 26S proteasome non-ATPase regulatory subunit 14 (Homo sapiens, UniProt O00487); assay: inhibition of proteasome subunit RPN11 – biochemical, fluorescence polarization, uHTS hits, confirmation (AID 602368); assay type: functional
[7] = target: 72 kDa type IV collagenase (Homo sapiens, UniProt P08253); assay: Dose Response validation of uHTS RPN11 inhibitor hits using a MMP-2 Fluorescence assay.; assay type: functional
Prothrombin = Prothrombin (Bos taurus, UniProt P00735); assay: thrombin inhibition, dose response, biochemical, fluorescence polarization, uHTS hits (AID 602369); assay type: functional
[8] = target: SWI/SNF-related matrix-associated actin-dependent regulator of chromatin subfamily A member 2 (Homo sapiens, UniProt P51531); assay: Luminescence-based cell-based high throughput dose response assay to identify activators of the function of SWI/SNF related, matrix associated, actin dependent regulator of chromatin, subfamily a, member 2 (SMARCA2, BRM).; assay type: functional
[9] = Counterscreen for activators of the function of SWI/SNF related, matrix associated, actin dependent regulator of chromatin, subfamily a, member 2 (SMARCA2, BRM): Luminescence-based cell-based high throughput dose response assay to identify non-selective compounds using the VP16 reporter assay.; assay type: functional
Paired box protein Pax-8 = Paired box protein Pax-8 (Homo sapiens, UniProt Q06710); assay: inhibitors of PAX8-driven TPO luciferase reporter, dose response, RMG-I cells, cherry-pick (AID 687027); assay type: functional, cell-based;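 note: luciferase reporter driven by Pax8 target thyroperoxidase promoter measured by SteadyGlo luminescence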
[10] = non-specific cell cytotoxicity, dose response, cytotoxicity control for PAX8 inhibitor project, plate reader, dry powder samples (AID 743021); assay type: functional, cell-based
[11] = target: T1, DNA dC->dU-editing enzyme APOBEC-3A (Homo sapiens, UniProt P31941); assay: APOBEC3A DNA deaminase inhibitors, dose response, biochemical (AID 504722); assay type: functional
[12] = target: T2, DNA dC->dU-editing enzyme APOBEC-3G (Homo sapiens, UniProt Q9HC16); assay: Dose Response confirmation of small molecule APOBEC3G DNA Deaminase Inhibitors via a fluorescence-based single-stranded DNA deaminase assay. [Related pubchem assays (depositor defined):AID493012, AID493028]; assay type: functional
[13] = target: T1, DNA dC->dU-editing enzyme APOBEC-3A; assay: SAR analysis of small molecule inhibitors of APOBEC3A DNA Deaminase via a fluorescence-based single-stranded DNA deaminase assay - Set 2.; assay type: functional; conditions: read-out: IC50_Mean
[14] = target: T2, DNA dC->dU-editing enzyme APOBEC-3G; assay: SAR analysis of small molecule inhibitors of APOBEC3G DNA Deaminase via a fluorescence-based single-stranded DNA deaminase assay - Set 2.; assay type: functional; conditions: read-out: IC50_Mean
[15] = target: T2, DNA dC->dU-editing enzyme APOBEC-3G; assay: APOBEC3G deaminase inhibitors, SAR follow-up, biochemical, fluorescence, single-stranded DNA substrate (AID 602136); assay type: functional; conditions: read-out: IC50_Mean
[16] = target: T1, DNA dC->dU-editing enzyme APOBEC-3A; assay: SAR analysis of small molecule inhibitors of APOBEC3A DNA Deaminase via a fluorescence-based single-stranded DNA deaminase assay.; assay type: functional; conditions: read-out: IC50_Mean
ORF 73 = ORF 73 (Human herpesvirus 8, UniProt O40947); assay: inhibitors of C-LANA binding to LBS DNA, dose response, biochemical, fluorescence polarization, cherry-picked samples (AID 504725); design: species or system Human gammaherpesvirus 8;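 note: fluorescence polarization of a labeled DNA duplex reporting LANA DNA binding; potency is for inhibitors that block LANA binding to the DNA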
[17] = target: Benomyl/methotrexate resistance protein (Candida albicans, UniProt P28873); assay: CaMdr1 efflux pump inhibitor potency, dose response, singleplex, Cherry Pick1 hits (AID 588608); assay type: functional
[18] = target: Multidrug resistance protein CDR2 (Candida albicans (strain SC5314 / ATCC MYA-2876) (Yeast), UniProt P78595); assay: CaCDR2 efflux pump inhibitors in yeast, dose response, S. cerevisiae AD1-8u, singleplex, Cherry Pick1 hits (AID 588604); assay type: functional
Sequence of Multidrug resistance protein CDR2 (P78595 whole entry): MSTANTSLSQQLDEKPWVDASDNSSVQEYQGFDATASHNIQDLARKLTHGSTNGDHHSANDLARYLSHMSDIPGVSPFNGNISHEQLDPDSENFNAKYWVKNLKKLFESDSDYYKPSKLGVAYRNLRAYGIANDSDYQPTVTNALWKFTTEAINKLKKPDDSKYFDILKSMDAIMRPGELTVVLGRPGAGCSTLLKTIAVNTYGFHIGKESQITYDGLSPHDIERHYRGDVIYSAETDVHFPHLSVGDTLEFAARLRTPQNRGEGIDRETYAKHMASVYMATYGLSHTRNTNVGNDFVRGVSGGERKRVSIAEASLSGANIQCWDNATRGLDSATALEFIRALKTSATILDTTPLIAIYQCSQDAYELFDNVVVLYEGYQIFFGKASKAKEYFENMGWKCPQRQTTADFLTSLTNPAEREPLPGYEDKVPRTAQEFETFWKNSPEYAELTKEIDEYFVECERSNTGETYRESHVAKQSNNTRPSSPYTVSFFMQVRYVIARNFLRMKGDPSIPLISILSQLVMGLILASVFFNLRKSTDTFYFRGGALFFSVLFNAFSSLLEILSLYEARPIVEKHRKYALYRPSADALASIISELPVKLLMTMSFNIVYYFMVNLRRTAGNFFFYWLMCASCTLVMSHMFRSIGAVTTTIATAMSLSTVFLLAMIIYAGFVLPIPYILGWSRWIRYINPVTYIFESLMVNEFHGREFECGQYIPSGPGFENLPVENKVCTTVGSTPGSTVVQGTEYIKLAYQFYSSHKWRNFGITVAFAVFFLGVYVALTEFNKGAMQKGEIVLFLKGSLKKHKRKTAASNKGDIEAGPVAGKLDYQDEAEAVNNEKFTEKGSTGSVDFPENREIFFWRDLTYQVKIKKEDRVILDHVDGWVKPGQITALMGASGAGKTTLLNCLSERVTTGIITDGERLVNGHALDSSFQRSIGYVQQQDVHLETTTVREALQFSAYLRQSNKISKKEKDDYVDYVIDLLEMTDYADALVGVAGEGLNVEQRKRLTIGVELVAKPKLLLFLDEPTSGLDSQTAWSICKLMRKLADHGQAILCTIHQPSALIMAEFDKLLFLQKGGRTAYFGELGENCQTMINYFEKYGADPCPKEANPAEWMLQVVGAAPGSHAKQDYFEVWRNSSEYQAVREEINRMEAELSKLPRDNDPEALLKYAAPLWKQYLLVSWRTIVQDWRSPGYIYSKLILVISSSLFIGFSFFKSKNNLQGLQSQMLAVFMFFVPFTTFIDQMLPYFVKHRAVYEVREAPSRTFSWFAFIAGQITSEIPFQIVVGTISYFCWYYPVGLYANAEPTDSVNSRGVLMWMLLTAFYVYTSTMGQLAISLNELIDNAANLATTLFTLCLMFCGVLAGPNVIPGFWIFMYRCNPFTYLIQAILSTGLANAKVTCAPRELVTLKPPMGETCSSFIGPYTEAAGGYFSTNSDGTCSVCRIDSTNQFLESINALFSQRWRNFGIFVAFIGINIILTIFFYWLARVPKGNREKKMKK

T1 sequence (P31941 whole entry): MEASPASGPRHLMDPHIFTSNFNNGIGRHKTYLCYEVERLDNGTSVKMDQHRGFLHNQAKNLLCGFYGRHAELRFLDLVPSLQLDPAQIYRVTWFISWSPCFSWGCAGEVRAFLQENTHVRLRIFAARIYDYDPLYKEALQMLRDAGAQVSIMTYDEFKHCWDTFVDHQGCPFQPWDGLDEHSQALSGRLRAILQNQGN
T2 sequence (Q9HC16 whole entry): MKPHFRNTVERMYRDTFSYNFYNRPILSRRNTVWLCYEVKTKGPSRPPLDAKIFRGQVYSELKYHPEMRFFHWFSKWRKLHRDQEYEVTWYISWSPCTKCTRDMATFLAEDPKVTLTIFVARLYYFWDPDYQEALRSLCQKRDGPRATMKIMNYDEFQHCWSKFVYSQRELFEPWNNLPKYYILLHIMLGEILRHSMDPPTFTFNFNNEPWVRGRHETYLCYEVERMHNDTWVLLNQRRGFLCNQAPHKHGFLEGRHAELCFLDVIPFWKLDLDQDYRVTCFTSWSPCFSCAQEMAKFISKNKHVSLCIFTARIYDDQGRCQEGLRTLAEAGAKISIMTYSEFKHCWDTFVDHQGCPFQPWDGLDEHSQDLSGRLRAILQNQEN
Sequence of 26S proteasome non-ATPase regulatory subunit 14 (O00487 whole entry): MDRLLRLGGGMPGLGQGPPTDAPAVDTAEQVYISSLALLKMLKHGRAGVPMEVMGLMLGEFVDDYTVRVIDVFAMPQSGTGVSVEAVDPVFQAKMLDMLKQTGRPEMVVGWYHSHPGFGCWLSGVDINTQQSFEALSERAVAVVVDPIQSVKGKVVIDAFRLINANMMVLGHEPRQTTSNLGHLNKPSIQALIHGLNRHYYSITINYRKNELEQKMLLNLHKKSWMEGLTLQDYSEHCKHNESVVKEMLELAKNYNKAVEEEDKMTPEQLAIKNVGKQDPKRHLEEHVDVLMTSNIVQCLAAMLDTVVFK
Sequence of ORF 73 (O40947 whole entry): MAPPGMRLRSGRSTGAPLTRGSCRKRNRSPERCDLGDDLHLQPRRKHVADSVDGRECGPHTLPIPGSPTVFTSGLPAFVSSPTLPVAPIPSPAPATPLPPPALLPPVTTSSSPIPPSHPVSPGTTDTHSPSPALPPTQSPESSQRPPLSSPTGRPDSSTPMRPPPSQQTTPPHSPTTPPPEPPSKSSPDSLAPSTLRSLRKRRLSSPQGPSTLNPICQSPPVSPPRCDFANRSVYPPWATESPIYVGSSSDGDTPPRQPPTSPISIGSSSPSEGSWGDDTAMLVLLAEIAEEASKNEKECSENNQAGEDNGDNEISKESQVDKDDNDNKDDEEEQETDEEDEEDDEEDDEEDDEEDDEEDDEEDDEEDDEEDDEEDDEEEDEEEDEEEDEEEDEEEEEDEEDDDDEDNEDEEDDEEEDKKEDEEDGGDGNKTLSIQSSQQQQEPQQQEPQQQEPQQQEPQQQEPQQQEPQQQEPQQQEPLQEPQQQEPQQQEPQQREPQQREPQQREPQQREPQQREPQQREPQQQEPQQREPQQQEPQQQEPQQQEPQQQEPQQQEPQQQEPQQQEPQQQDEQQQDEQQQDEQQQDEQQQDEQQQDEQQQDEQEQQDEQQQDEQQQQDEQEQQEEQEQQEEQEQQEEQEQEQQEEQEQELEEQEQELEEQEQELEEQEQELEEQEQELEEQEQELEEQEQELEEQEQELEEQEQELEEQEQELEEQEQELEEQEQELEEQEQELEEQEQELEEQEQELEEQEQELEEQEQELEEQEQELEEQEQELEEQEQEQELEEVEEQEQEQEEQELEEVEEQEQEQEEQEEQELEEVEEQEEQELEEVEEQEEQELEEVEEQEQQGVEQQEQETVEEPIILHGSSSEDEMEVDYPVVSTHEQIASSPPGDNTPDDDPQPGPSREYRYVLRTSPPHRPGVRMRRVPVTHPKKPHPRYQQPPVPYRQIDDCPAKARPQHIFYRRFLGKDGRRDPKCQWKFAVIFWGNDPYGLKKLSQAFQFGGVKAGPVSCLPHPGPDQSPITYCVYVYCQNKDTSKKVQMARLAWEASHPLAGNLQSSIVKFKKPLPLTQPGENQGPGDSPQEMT
Sequence of Paired box protein Pax-8 (Q06710 whole entry): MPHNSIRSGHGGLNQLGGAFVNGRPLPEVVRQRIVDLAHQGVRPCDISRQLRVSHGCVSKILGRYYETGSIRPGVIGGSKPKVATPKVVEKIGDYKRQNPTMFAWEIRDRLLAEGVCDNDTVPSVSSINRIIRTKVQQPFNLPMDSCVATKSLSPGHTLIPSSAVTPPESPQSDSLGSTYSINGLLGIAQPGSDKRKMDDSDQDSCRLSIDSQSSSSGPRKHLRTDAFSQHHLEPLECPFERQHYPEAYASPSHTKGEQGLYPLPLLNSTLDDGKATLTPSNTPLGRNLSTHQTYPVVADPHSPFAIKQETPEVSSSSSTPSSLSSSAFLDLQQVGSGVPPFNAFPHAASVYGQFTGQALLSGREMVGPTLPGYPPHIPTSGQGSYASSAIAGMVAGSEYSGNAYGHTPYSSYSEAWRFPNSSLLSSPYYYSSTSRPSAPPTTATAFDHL
Sequence of Benomyl/methotrexate resistance protein (P28873 whole entry): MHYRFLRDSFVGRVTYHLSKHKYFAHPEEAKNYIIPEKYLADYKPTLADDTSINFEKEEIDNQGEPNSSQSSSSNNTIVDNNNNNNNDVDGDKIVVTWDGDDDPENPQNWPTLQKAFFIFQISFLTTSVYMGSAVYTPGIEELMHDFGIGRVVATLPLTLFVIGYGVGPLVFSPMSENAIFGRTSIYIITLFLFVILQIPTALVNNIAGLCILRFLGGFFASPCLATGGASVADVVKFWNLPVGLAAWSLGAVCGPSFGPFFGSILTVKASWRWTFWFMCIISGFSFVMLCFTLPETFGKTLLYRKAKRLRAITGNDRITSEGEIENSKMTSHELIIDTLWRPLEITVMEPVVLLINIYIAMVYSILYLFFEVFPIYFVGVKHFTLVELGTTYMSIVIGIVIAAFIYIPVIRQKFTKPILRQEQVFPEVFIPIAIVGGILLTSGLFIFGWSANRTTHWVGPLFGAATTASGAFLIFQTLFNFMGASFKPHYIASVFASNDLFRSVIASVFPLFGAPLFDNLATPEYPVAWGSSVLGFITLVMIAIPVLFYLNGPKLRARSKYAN
Sequence of Protein disulfide-isomerase (P07237 whole entry): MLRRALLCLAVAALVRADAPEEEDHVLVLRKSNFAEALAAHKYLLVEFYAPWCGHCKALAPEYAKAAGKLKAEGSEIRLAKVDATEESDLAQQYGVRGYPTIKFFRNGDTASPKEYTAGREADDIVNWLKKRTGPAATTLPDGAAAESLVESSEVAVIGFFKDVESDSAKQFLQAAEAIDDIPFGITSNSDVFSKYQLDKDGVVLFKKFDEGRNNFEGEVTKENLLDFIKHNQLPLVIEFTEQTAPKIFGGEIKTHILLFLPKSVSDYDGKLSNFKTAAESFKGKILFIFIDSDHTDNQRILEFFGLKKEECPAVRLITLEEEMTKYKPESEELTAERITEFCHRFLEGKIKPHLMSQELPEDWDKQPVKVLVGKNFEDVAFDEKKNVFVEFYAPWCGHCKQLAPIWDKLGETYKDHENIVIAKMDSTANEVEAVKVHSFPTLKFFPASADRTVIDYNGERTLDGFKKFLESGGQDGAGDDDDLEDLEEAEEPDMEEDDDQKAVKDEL

COc1ccc(N2CCN(CC(=O)c3ccc(O)c(C)c3O)CC2)cc1
active: AC50 [1] 19.5 µM

Cc1ccc(CNC(=O)COC(=O)Cn2nc(C)c([N+](=O)[O-])c2C)cc1
inactive: IC50 (Melanocortin receptor 4) 14.4 µM | IC50 [2] > 64.6 µM

COc1ccc(-n2nc3c(N4CCC(C(=O)NCc5cccc(C)c5)CC4)nnc(C)c3c2C)cc1
active: EC50 [3] 9.83 µM | EC50 [4] 12 µM | EC50 [5] 6.99 µM | IC50 [6] 29.3 µM | IC50 (Prothrombin) 48.7 µM | AC50 (Paired box protein Pax-8) 5.58 µM | AC50 [10] 23.8 µM
inactive: IC50 [7] > 100 µM | EC50 [8] > 91.1 µM | EC50 [9] > 91.1 µM

S=c1[nH]nc2c3c4c(sc3ncn12)CCCC4
inactive: IC50 [11] > 100 µM | IC50 [13] > 99 µM | IC50 [14] > 99 µM | IC50 [16] > 99 µM
active: IC50 [12] 0.992 µM | IC50 [15] 3.15 µM

O=C1/C(=C/c2ccco2)Oc2c1ccc(O)c2CN1CCCCC1
active: AC50 (ORF 73) 14.5 µM | EC50 [17] 9.63 µM | EC50 [18] 18.4 µM
